Where “and” joins values, the source holds several entries; their conditions need not be identical. Identical values can stand only once. Like-named read-outs stand apart in the source and are kept apart here. One block for each compound: values may come before it.
Columns and labels:
[1] = molecular target: Bovine brain tubulin (Bos taurus, UniProt P81947+Q6B856); experiment: In vitro tubulin polymerization assay; format: biochemical; settings: for Inhibition of tubulin polymerization: 20 min incubation, compared to vehicle
Bovine brain tubulin, sequence (Q6B856 whole entry): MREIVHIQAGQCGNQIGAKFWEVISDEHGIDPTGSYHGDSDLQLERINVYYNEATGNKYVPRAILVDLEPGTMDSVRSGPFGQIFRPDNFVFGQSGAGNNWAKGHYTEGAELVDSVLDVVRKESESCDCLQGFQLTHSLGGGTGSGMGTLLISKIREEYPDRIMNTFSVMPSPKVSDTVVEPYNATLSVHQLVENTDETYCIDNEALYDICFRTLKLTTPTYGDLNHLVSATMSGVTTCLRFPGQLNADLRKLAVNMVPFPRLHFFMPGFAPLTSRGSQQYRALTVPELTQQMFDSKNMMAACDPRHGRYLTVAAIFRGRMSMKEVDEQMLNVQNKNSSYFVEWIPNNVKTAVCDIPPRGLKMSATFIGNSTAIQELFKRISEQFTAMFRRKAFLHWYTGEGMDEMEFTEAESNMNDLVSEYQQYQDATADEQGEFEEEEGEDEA
Bovine brain tubulin, sequence (P81947 whole entry): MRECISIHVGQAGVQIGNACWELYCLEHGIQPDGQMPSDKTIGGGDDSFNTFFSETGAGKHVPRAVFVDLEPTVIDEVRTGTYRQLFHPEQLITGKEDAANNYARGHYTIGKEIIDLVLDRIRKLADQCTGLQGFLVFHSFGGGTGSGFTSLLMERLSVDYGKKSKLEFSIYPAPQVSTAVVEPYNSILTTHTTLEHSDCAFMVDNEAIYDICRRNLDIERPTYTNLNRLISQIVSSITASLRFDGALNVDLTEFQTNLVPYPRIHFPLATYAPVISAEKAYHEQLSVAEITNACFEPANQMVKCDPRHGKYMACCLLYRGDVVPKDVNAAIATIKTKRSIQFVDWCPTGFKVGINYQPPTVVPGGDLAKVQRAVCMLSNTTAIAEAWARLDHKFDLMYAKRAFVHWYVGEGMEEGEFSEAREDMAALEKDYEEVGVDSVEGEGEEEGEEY

[2] = Metabolite identification in human liver microsomes; format: in vitro ADME; settings: 50 μM compound, 1 mg/mL microsomal protein, high resolution MS
[3] = Microsomal stability assay, mouse liver microsomes; format: in vitro ADME; settings: 0.5 μM compound, 1 mg/mL microsomal protein
[4] = Microsomal stability assay, rat liver microsomes; format: in vitro ADME; settings: 0.5 μM compound, 1 mg/mL microsomal protein
[5] = Microsomal stability assay, human liver microsomes; format: in vitro ADME; settings: for T1/2 in human liver microsomes: 0.5 μM compound, 1 mg/mL microsomal protein; for Fold improvement of metabolic stability in human microsomes: compared to parent SMART compound
[6] = cited from earlier work
[7] = cited from earlier work; remark: listed apart in the source
[8] = tested on: prostate cancer cells; experiment: Antiproliferative activity, prostate cancer cells overall; format: cell-based, human; settings: compared to parent PAT compound
[9] = tested on: LNCaP; experiment: Antiproliferative SRB assay, LNCaP prostate cancer cells; format: cell-based, human; settings: compared to SMART compound 10 and 4
[10] = tested on: A375; experiment: Antiproliferative SRB assay, A375 melanoma cells; format: cell-based; settings: compared to SMART compound 10 and 4
[11] = Microsomal stability, over the tested liver microsome species; format: in vitro ADME; settings: mouse, rat

Compound: COc1cc(C(=O)c2csc(-c3ccccc3)n2)cc(OC)c1OC [SMART 10]
T1/2 in mouse liver microsomes [6]: ≪5 min

Compound: COc1cc(C(=O)c2csc(Nc3ccccc3)n2)cc(OC)c1OC [PAT]
Oral bioavailability [7]: 21%
Oral bioavailability (F) ([7]; reference not given): > 30%

Compound: COc1cc(-c2nccc3[nH]c(-c4ccc5[nH]ccc5c4)nc23)cc(OC)c1OC [compound 7, 2-(1H-Indol-5-yl)-4-(3,4,5-trimethoxyphenyl)-1H-imidazo[4,5-c]pyridine]
inhibition at 5 µM ([1]; read-out: Inhibition of tubulin polymerization): ~33%
Fold improvement of IC50 against LNCaP [9]: at least 5 fold
Fold improvement of IC50 against A375 [10]: at least 5 fold
Major metabolites / metabolic pathway [2]: M14 is the major metabolite
Fold improvement of metabolic stability in human microsomes [5]: 2–3 fold

More lines, main results first:

Inhibition of tubulin polymerization ([1]; 5 μM): 30%
Inhibition of tubulin polymerization ([1]; 10 μM): 60%
T1/2 in mouse liver microsomes [3]: 0.892 ± 0.04 h
T1/2 in rat liver microsomes [4]: 1.2 ± 0.0767 h
T1/2 in human liver microsomes [5]: 0.85 h and 0.845 ± 0.02 h
Fold improvement of metabolic stability in human microsomes [5]: 2–3 fold
Compound: 2-(1H-Indol-3-yl)-4-(3,4,5-trimethoxyphenyl)-1H-benzo[d]imidazole [compound 4]
Major metabolites / metabolic pathway [2]: o-demethylation (M9) and monohydroxylation (M10) are the major products

Fold change of IC50 on prostate cancer cells [8]: 2–3 fold
Compound: COc1cc(C(=O)c2csc(Nc3ccc4[nH]ccc4c3)n2)cc(OC)c1OC [compound 33, (2-((1H-Indol-5-yl)amino)thiazol-4-yl)(3,4,5-trimethoxyphenyl)methanone]

T1/2 in the tested liver microsomes species ([11]; summary over human): 1.83 to 3.75 h
T1/2 in mouse liver microsomes [3]: 2.05 ± 0.128 h
T1/2 in rat liver microsomes [4]: 3.75 ± 0.21 h
T1/2 in human liver microsomes [5]: 1.833 ± 0.0917 h
Compound: (4-(2-Aminoethyl)-3,5-dimethoxyphenyl)(2-phenylthiazol-4-yl)methanone [compound 18]
Major metabolites / metabolic pathway [2]: M6 (dealkylation) and M8 (ketone reduction) are the major metabolites

half-life at 0.5 μM ([11]; human, liver microsomes, pH 7.4): < 0.167 h
Compound: COCOc1c(OC)cc(C(=O)c2csc(-c3ccccc3)n2)cc1OC [compound 15, (3,5-Dimethoxy-4-(methoxymethoxy)phenyl)(2-phenylthiazol-4-yl)methanone]
Major metabolites / metabolic pathway [2]: removal of the MOM group to form M1 is the major metabolic pathway

Reference: article PMC4161160 (Journal of Medicinal Chemistry, 2014)
